Assay results reported in ChEMBL document CHEMBL1129813, “Synthesis and cell growth inhibitory properties of substituted (E)-1-phenylbut-1-en-3-ones” (Bioorg Med Chem Lett, 1997).

tested on: K562; experiment: In vitro cell growth inhibitory activity against K562 human chronic myelogenous leukemia cell line; type: functional, cell-based

First: CC(=O)/C=C/c1ccc2c(c1)OCO2
Second: CC(=O)/C=C/c1ccc(F)c(Br)c1
The IC50 of the first is 4.1-fold higher: 12 µM for the first, 2.9 µM for the second. The second is the more potent here.

Going from COc1cc(N(C)C)ccc1/C=C/C(C)=O to COc1ccc(/C=C/C(C)=O)c(OC)c1, the IC50 falls from 68 µM to 30 µM (2.3-fold).

CC(=O)/C=C/c1ccc2ccccc2c1 and CC(=O)/C=C/c1ccc(OCc2ccccc2)cc1 are within 1.5-fold of each other in IC50: 7.6 µM for the first, 10.3 µM for the second.

Compared with CC(=O)/C=C/c1c(F)c(F)c(F)c(F)c1F, CC(=O)/C=C/c1cc(Br)ccc1F is 2.8-fold higher in IC50: 1.9 µM for the first, 5.3 µM for the second.

First: CC(=O)/C=C/c1ccc(N(C)C)cc1
Second: CC(=O)/C=C/c1ccc(C)cc1
The IC50 of the first is 12-fold higher: 90 µM for the first, 7.5 µM for the second.

CC(=O)/C=C/c1ccc(Cl)cc1Cl and CC(=O)/C=C/c1ccc(Br)cc1F are within 1.5-fold of each other in IC50: 7.9 µM for the first, 7.4 µM for the second.

Compared with COc1cc(/C=C/C(C)=O)cc(OC)c1, COc1cc(/C=C/C(C)=O)cc(OC)c1O is 9.7-fold higher in IC50: 5.8 µM for the first, 56 µM for the second.

Compared with CC(=O)/C=C/C=C/c1ccccc1, CC(=O)/C=C/c1ccc(F)cc1 is 3.3-fold lower in IC50: 20 µM for the first, 6.1 µM for the second. The second is the more potent here.

Compared with CC(=O)/C=C/c1ccco1, CC(=O)/C=C/c1cccs1 is lower in IC50: over 100 µM for the first, 20 µM for the second.

COc1ccc(/C=C/C(C)=O)cc1OC and COc1ccc(/C=C/C(C)=O)cc1O are within 1.5-fold of each other in IC50: 34 µM for the first, 42 µM for the second.

Compared with CC(=O)/C=C/c1ccc(C(C)C)cc1, CC(=O)/C=C/c1ccc(Cl)cc1 is 2.5-fold lower in IC50: 21 µM for the first, 8.3 µM for the second. The second is the more potent here.

Going from COc1cc(/C=C/C(C)=O)cc(OC)c1OC to COc1cc(OC)c(/C=C/C(C)=O)c(OC)c1, the IC50 falls from 17 µM to 9.3 µM (1.8-fold). The second is the more potent here.

CC(O)CCc1ccc(O)cc1 (configuration not stated) and CC(=O)CCc1ccc(O)cc1 [RASPBERRYKETONE] cannot be ordered by IC50: over 100 µM for the first, over 100 µM for the second.

Compared with CC(=O)/C=C/c1ccc(OCc2ccccc2)c(OCc2ccccc2)c1, COc1cc(/C=C/C(C)=O)ccc1O [DEHYDROZINGERONE] is 8.1-fold higher in IC50: 8.4 µM for the first, 68 µM for the second. The first is the more potent here.

CC(=O)/C=C/c1cccc([N+](=O)[O-])c1 and CC(=O)/C=C/c1ccc([N+](=O)[O-])cc1 are the same in IC50: 2.6 µM for the first, 2.6 µM for the second.

Compared with CSc1ccc(/C=C/C(C)=O)cc1, CC(=O)/C=C/c1ccc(Br)cc1 is 2.7-fold lower in IC50: 15 µM for the first, 5.6 µM for the second. The second is the more potent here.

COc1ccc(/C=C/C(C)=O)cc1 and CC(=O)/C=C/c1ccc(O)cc1 are within 1.5-fold of each other in IC50: 79 µM for the first, 60 µM for the second.

CC(=O)/C=C/c1cccc(C(F)(F)F)c1 and CC(=O)/C=C/c1ccc(C(F)(F)F)cc1 are within 1.5-fold of each other in IC50: 3.5 µM for the first, 3.3 µM for the second.

With COc1cccc(/C=C/C(C)=O)c1O the IC50 was 9.9 µM.
